Reference: a compilation of properties of binary mixtures (doi:10.1016/j.molliq.2017.05.115)

Test: xn = mol fraction of the nth substance listed
Conditions: 101 kPa

In the case of CC[n+]1ccn(C)c1.COS(=O)(=O)[O-] + CCCCCCCO, the speed of sound (298.15 K, x1 = 0.0836) is reported as 1330.6 m/s, the speed of sound (298.15 K, x1 = 0.1703) is reported as 1341.3 m/s and the speed of sound (298.15 K, x1 = 0.2602) is reported as 1357.7 m/s. It also gave a speed of sound (298.15 K, x1 = 0.3537) of 1380.4 m/s, a speed of sound (298.15 K, x1 = 0.4508) of 1410.5 m/s and a speed of sound (298.15 K, x1 = 0.657) of 1499.2 m/s. For the same compound, the speed of sound (298.15 K, x1 = 0.8808) was 1646.1 m/s, the speed of sound (303.15 K, x1 = 0.0836) was 1319.6 m/s and the speed of sound (303.15 K, x1 = 0.1703) was 1330.5 m/s. For the same compound, the speed of sound (303.15 K, x1 = 0.2602) was 1346.9 m/s, the speed of sound (303.15 K, x1 = 0.3537) was 1369.7 m/s and the speed of sound (303.15 K, x1 = 0.4508) was 1399.9 m/s. The speed of sound (303.15 K, x1 = 0.5518) was 1438.8 m/s, the speed of sound (303.15 K, x1 = 0.657) was 1488.8 m/s and the speed of sound (303.15 K, x1 = 0.8808) was 1636.2 m/s. For the same compound, the speed of sound (308.15 K, x1 = 0.0836) was 1299.7 m/s, the speed of sound (308.15 K, x1 = 0.1703) was 1310.5 m/s and the speed of sound (308.15 K, x1 = 0.2602) was 1327 m/s. For the same compound, the speed of sound (308.15 K, x1 = 0.4508) was 1380.2 m/s, the speed of sound (308.15 K, x1 = 0.5518) was 1419.4 m/s and the speed of sound (308.15 K, x1 = 0.657) was 1469.8 m/s. For the same compound, the speed of sound (308.15 K, x1 = 0.7665) was 1534.7 m/s and the speed of sound (308.15 K, x1 = 0.8808) was 1619.5 m/s.
